Measurements reported in US20040087030A1, “Method for the regeneration of cotton” (priority 1998, published 2004).

How the values were obtained:
Assay type in all cases: cell-based, cotton (Coker 312)
[1] = test system: transgenic cotton calli (Coker 312); assay: Induction of embryogenesis in transgenic cotton callus on induction media with antioxidant (ascorbic acid)
Method: […] This culture was maintained at 28° C. under conditions of dark or limited lighting. The dark or limited lighting conditions were accomplished using a black bag, a covering of aluminum foil, or by incubating in a dark growth chamber. Alternatively, the transgenic calli may be incubated under green light. The incubation is continued for about eight to ten weeks.

embryogenic cotton calli = assay: Embryogenic callus formation on induction media with ethylene inhibitors; settings: 40 calli tested
Method: The transgenic calli were removed from the hypocotyls and transferred to a culture containing hormone-free media comprising the following components per liter: 4.4 g MS salts with B5 vitamins; 30 g glucose, pH 5.8; an antioxidant, such as ascorbic acid (10-100 mg); an ethylene inhibitor, such as aminoethoxyvinylglycine at approximately 5 μM; GELRITE or PHYTAGEL (2-3 g); and selective agents as described above. This culture was maintained at 28° C. under conditions of dark or limited lighting. The dark or limited lighting conditions were accomplished using a black bag, a covering of aluminum foil, or by incubating in a dark growth chamber. Alternatively, the transgenic calli may be incubated under green light. The incubation is continued for about eight to ten weeks.
In two separate experiments, the ethylene inhibitors AVG (aminoethoxy-vinylglycine), DNP (2,4-dinitrophenol), and salicylic acid were tested to determine their influence on the induction of embryogenic cotton calli.

cotton embryos = assay: Embryo germination on germination media with varying carbohydrate concentration
Method: The preparation of Agrobacterium, seed sterilization, seed germination, inoculation, co-culture, and selection were performed as described in Example 1. Embryos were induced as outlined in Examples 2, 3, and 4. After eight weeks, the embryogenic tissue that formed was transferred to an embryo maturation media as described in Examples 5 and 6. Cultures were monitored for the presence of actively growing embryos.
About every four weeks, actively growing tissue and small embryos were removed and placed on fresh maturation media. The embryos were spaced on the culture plates with adequate room for growth. The tissue was returned to the warm room and incubated under the same growth conditions.
Embryos larger than about 5 mm were transferred to a germination media (Stewart and Hsu, Planta 137:113-117, […]) with various carbohydrate concentrations and 0.25 g/L GELRITE. The embryos are incubated at 28° C. in a lighted incubator with a 16/8 day/night cycle.
Various concentrations of glucose and sucrose in the germination media were tested. The germination media comprised sucrose or glucose at concentrations ranging from about 0%-2% (w/v).

[2] = pMON20956 vector, ascorbic acid 100 mg/L
[3] = 0.1% carbohydrate in germination media
[4] = 0.5% carbohydrate in germination media
[5] = 1% carbohydrate in germination media
[6] = 2% carbohydrate in germination media

O=C1O[C@H]([C@@H](O)CO)C(O)=C1O [Ascorbic Acid, ascorbic acid]
effect on frequency of embryogenesis ([1]; Coker 312, two independent experiments): increase the frequency of embryogenesis
% Embryogenic Calli Transfer 1 [1, 2]: 3%
% Embryogenic Calli Transfer 2 [1, 2]: 31%
Total Frequency of Embryogenesis [1, 2]: 34%

O=[N+]([O-])c1ccc(O)c([N+](=O)[O-])c1 [DNP, 2,4-dinitrophenol]
Embryogenic Calli Formed (embryogenic cotton calli; Expt 1 pMON10517, 1 μM): 17
Frequency of Formation (embryogenic cotton calli; Expt 1 pMON10517, 1 μM): 43%
Embryogenic Calli Formed (embryogenic cotton calli; Expt 2 pMON10079, 1 μM): 16
Frequency of Formation (embryogenic cotton calli; Expt 2 pMON10079, 1 μM): 40%

O=C(O)c1ccccc1O [salicylic acid]
Embryogenic Calli Formed (embryogenic cotton calli; Expt 1 pMON10517, 50 μM): 12
Frequency of Formation (embryogenic cotton calli; Expt 1 pMON10517, 50 μM): 30%
Embryogenic Calli Formed (embryogenic cotton calli; Expt 2 pMON10079, 50 μM): 17
Frequency of Formation (embryogenic cotton calli; Expt 2 pMON10079, 50 μM): 43%

OC[C@H]1O[C@@](CO)(O[C@H]2O[C@H](CO)[C@@H](O)[C@H](O)[C@H]2O)[C@@H](O)[C@@H]1O [sucrose]
# Plantlets with Expanded Leaves (cotton embryos; [3]): 7
Transformation Frequency (cotton embryos; [3]): 47%
# Plantlets with Expanded Leaves (cotton embryos; [4]): 10
Transformation Frequency (cotton embryos; [4]): 43%
# Plantlets with Expanded Leaves (cotton embryos; [5]): 6
Transformation Frequency (cotton embryos; [5]): 27%
# Plantlets with Expanded Leaves (cotton embryos; [6]): 5
Transformation Frequency (cotton embryos; [6]): 28%
effect on frequency of embryo germination and plantlet formation (cotton embryos; concentrations ranging from about 0% to 0.5% (w/v) in germination media): significantly increased the frequency of embryo germination and plantlet formation
